Measured values taken from patent US20100267733A1, “Synergistic Modulation of Microglial Activation by Nicotine and THC” (UNIVERSITY OF SOUTH FLORIDA, priority 2007, published 2010).
Where two headings read alike, the source gives them in different places.

Experiments:
[1] = tested on: mouse primary microglial cells; assay: Microglial phagocytosis of Aβ1-42 / Cy3-Aβ1-42 with CD40L (phagocytosis assay, quantitative immunoblotting); format: cell-based
Procedure: FIG. 4 is a graph showing CB2 stimulation modulates microglial phagocytic function. Mouse primary microglial cells were seeded at 5×10^5 cells/well and treated with 3 μM Cy3™-Aβ1-42 with CD-40L protein (2.5 μg/mL), JWH-015 (5 μM) or both JWH-015 and CD-40L. Aβ mean band densities are represented as ratios to β-actin+/−SD (n=3 for each condition).
To examine the functional consequences of CB2 agonist treatment on CD40 expression, mouse primary microglial cells were stimulated with either IFN-γ/CD40L protein (Polazzi, E., A. Contestabile, Reciprocal interactions between microglia and neurons: from survival to neuropathology. Rev. Neurosci., 2002. 13(3): 221-242; Facchinetti, F., et al., Cannabinoids ablate release of TNFalpha in rat microglial cells stimulated with lypopolysaccharide. Glia, 2003. 41(2): 161-168; Walter, L., et al., Nonpsychotropic cannabinoid receptors regulate microglial cell migration. J. Neurosci. 2003. 23(4):1398-405) or Aβ1-42/CD40L protein in the presence or absence of JWH-015 for 24 hr. […] The canonical microglial function in the CNS is thought to be phagocytosis, given that IFN-γ and CD40 signaling are maturation agents that oppose this phagocytic function. Murine primary microglial cultures were exposed to 3 μM of Aβ1-42 (for immunoblotting) or Cy3™-Aβ1-42 (for phagocytosis assay) in the presence or absence of CD40L protein or CD40L protein/JWH-015. After 3 hr, the amount of phagocytosed Aβ1-42 peptide was determined by quantitative immunoblotting experiments, seen in FIG. 4. […] CD40 ligation decreased microglial phagocytosis compared to controls, while CB2 agonist treatment alone increased phagocytosis compared to control. The presence of JWH-015 rescued microglial phagocytosis of Cy3-Aβ1-42 following CD40L treatment.

N9 cells = assay: Cannabinoid agonist effects on microglial (N9) activation: TNF-α and NO release; format: cell-based, murine; settings: JWH-015 5 μM
Procedure: (§1) FIG. 3 is a block graph showing cannabinoid agonist effects on microglial (N9) activation. Cultured microglial cells were incubated with 100 ng/mL LPS (LPS), a combination of IFN-γ (100 U/mL) and CD-40L (2 μg/mL), or a combination of Aβ1-42 (1 μM) and CD-40L (2 μg/mL) and co-treated with JWH-015 (5 μM). Anti-CB2 siRNA was added to cells, abolishing the ability of JWH-015 to reduce LPS-induced cytokine release (n=3, **p<0.05). ELISA analysis of microglial cell release of (A) TNF-α and (B) NO was measured and mean levels per mg of total protein shown.
Cannabinoid receptors are expressed on microglia and regulate microglial function. As such, cannabinoid regulation of CD40 activation of microglial was investigated. N9 cells, transfected for 18 hr with specific murine CB2 targeting siRNA (100 nM), were treated for 4 hr with lipopolysaccharid (LPS), a positive control of microglia activation.

[2] = tested on: mouse primary microglial cells; assay: TNF-α secretion by primary microglial cells stimulated with IFN-γ/CD40L or Aβ1-42/CD40L (ELISA); format: cell-based; settings: 24 hr, presence of JWH-015
Procedure: as §1
To examine the functional consequences of CB2 agonist treatment on CD40 expression, mouse primary microglial cells were stimulated with either IFN-γ/CD40L protein (Polazzi, E., A. Contestabile, Reciprocal interactions between microglia and neurons: from survival to neuropathology. Rev. Neurosci., 2002. 13(3): 221-242; Facchinetti, F., et al., Cannabinoids ablate release of TNFalpha in rat microglial cells stimulated with lypopolysaccharide. Glia, 2003. 41(2): 161-168; Walter, L., et al., Nonpsychotropic cannabinoid receptors regulate microglial cell migration. J. Neurosci. 2003. 23(4):1398-405) or Aβ1-42/CD40L protein in the presence or absence of JWH-015 for 24 hr. […] After 3 hr, the amount of phagocytosed Aβ1-42 peptide was determined by quantitative immunoblotting experiments, seen in FIG. 4. […]

[3] = tested on: primary cultured microglial cells; format: cell-based, murine
Procedure: Primary cultured microglial cells (1×10^5 cells/well in 24-well tissue-culture plates) were treated with FITC-tagged Aβ1-42 (300 nM, pre-aggregated for 24 h at 37° C. in complete medium for 60 mm in the absence (control) or presence of nicotine ([…]). In addition, in parallel 24-well tissue-culture plates, microglial cells were incubated at […] with the same treatment above. Cell supernatants and lysates were analyzed for (A) extracellular and (B) cell associated FITC-Aβ using a fluorometer.
Concentration-response and time-course functions for microglial phagocytosis (cellular uptake) of Aβ1-42 peptide were then characterized. […] To fully characterize these effects, primary microglial cells cultured in 24-well tissue-culture plates (1×10^5/well) were treated for 0, 15, 30, 60, 120, and 180 mm with “aged” FITC tagged Aβ1-42 peptide at 300 nM in the presence or absence of nicotine (0.1-10 μM), THC (0.01-10 μM), and their combination. The microglia were then administered nicotine (0.1-10 μM), THC (0.01-10 μM) and a combination. In addition, cannabinoid antagonists, AM 251 (CB1) and AM 281 […] (0.01-10 μM), cannabinoid agonists, ACEA (CB1) and JHW 015 (CB2) (0.01-10 μM), and nicotinic receptor antagonists, mecamylamine (α4β2) and α-bungorotoxin (α 7) (0.01-10 μM) were used in challenge experiments to determine receptor specificity. For fluorescence analysis, the cells were then washed 5 times with ice-cold PBS to remove the extracellular Aβ, and fixed in 4% paraformaldehyde. The cells were mounted and viewed under an Olympus IX71/IX51 fluorscence microscope equipped with a digital camera system. Image Pro software was used to quantify fluorescence signals, using a minimum of 5 random fields. For fluorometric analysis, microglial cells were treated in parallel, rinsing the cells 3 times with medium and the cells lysed. Extracellular and cell associated FITC tagged Aβ was quantified using an MFX 96-well microplate fluorometer (Molecular Devices, MDS, Inc., Sunnyvale, Calif.) with an emission wavelength of 538 nm and an excitation wavelength of 485 nm. A standard curve from 0 nM to 500 nM of FITC-tagged Aβ was run for each plate. The total cellular protein of all groups was quantified using the Bio-Rad protein assay. In addition, in parallel 24-well tissue-culture plates, microglial cells was incubated at 4° C. with FITC-conjugated Aβ with or without various combinations of CD40L as controls for non-specifically incorporated Aβ. Microglial cells was then rinsed 3 times in Aβ-free complete medium, and the media was exchanged with fresh Aβ-free complete medium for 10 min both to allow for removal of non-incorporated Aβ and to promote concentration of the Aβ into phagosomes. The mean fluorescence values for each sample at 37° C. and 4° C. at the indicated time points were determined by fluorometic analysis. Relative fold change values were calculated as: (mean fluorescence value for each sample at 37° C./mean fluorescence value for each sample at 4° C.). In this manner, both extracellular and cell associated FITC-labeled Aβ were quantified.
For phagocytosis experiments, an important concern is the possibility of extracellular association of Aβ with microglial cell membrane. To address this issue, microglial cells was rinsed in Aβ-free complete medium, and media was exchanged with fresh Aβ-medium for 10 mm both to allow for removal of non-specifically incorporated Aβ and to promote concentration of the Aβ into phagosomes. Microglial cells were further cultured in parallel 24-well plates incubated at 4° C. with FITC-tagged Aβ at the same time points in the presence or absence of the appropriate treatment as control for non-specifically incorporated Aβ.

microglial cells [4] = assay: LPS-induced TNF-α release in cultured microglial cells (ELISA); format: cell-based, murine
Procedure: Cultured microglial cells were plated in 24-well tissue-culture plates (Costar, Cambridge, Mass.), using minimum essential media supplemented with 5% fetal bovine serum, at […] cells per well. […] After pretreatment the cells were stimulated with LPS (100 ng/mL) for 4 hrs. Cell-free supernatants were collected and stored at −70° C. until analysis. The TNF-α level in the supernatants were examined using ELISA kits (R&D Systems) in strict accordance with the manufacturers' protocols. Cell lysates were also prepared and the Bio-Rad protein assay (Hercules, Calif.) was performed to measure total cellular protein. Results are shown as mean pg of TNF-α per mg of total cellular protein (+1-SEM).
Murine primary culture microglial cells were isolated from newborn mouse cerebral cortices under sterile conditions and kept at 4° C. prior to mechanical dissociation. Cells were plated in 75 cm^2 flasks in RPMI medium supplemented with 5% fetal calf serum, 2 mM glutamine, 100 units/mL penicillin, 0.1 μg/mL streptomycin, and 0.05 mM 2-mercaptoethanol and kept for 14 days so only glial cells remain. The microglial cells were isolated by shaking the flasks at 200 rpm. More than 98% of the glial cells remaining stain positive for membrane attack complex-1 (CD-11b, Roche Diagnostics Corp., Indianapolis, Ind.). Additionally, between 85% and 95% of microglial cells usually stain positive for CD45 by fluorescence activated cell sorter (FACS) analysis.
Cell cultured media was collected for measurement of cytokines by commercial cytokine ELISA kits, as described previously. In parallel, cell lysates were prepared for measurement of total cellular protein. Data was represented as ng/mg total cellular protein for each cytokine production.
Cell cultures were treated with nicotinic/THC treatment, as described above. […] Each cytokine was represented as pg of cytokine/mg of total cellular protein. Data was analyzed using ANOVA with post hoc comparison using Bonferroni's or Dunnett's T3 methods as determined by Levene's test for equality of the variances.

microglial cells [5] = tested on: microglial cells
Tg2576 transgenic mice = settings: mouse, in vivo; cited from earlier work

CCCn1c(C)c(C(=O)c2cccc3ccccc23)c2ccccc21 [JWH-015]
microglial phagocytosis compared to control ([1]; CB2 agonist treatment alone, 3 μM Aβ1-42, 3 hr): increased | microglial phagocytosis of Cy3-Aβ1-42 following CD40L treatment ([1]; JWH-015 5 μM with CD40L protein, 3 hr): rescued | CD40L-mediated impairment of microglial phagocytosis of Aβ1-42 (band density ratio of Aβ to β-actin) ([1]; Western immunoblotting, parallel experiment): significant attenuation | Aβ levels (Aβ band densities compared to β-actin) ([1]; quantitative immunoblotting, FIG. 4): significantly reduced | Aβ/CD-40L-induced NO production (N9 cells; Aβ1-42 1 μM, CD-40L 2 μg/mL, FIG. 3(B)): significantly reduced | IFN-γ/CD-40L-induced NO production (N9 cells; IFN-γ 100 U/mL, CD-40L 2 μg/mL, FIG. 3(B)): significantly reduced | LPS-induced TNF-α release (N9 cells; N9 cells, LPS 100 ng/mL 4 hr, FIG. 3(A)): reductions | secretion of TNF-α induced by Aβ1-42/CD40L [2]: significantly reduced | secretion of TNF-α induced by IFN-γ/CD40L [2]: significantly reduced

CCCCCc1cc(O)c2c(c1)OC(C)(C)[C@@H]1CCC(C)=C[C@@H]21 [THC, Δ^9-tetrahydrocannabinol]
cell-associated FITC-Aβ1-42 ([3]; THC 5 μM): increasing | extracellular FITC-Aβ1-42 remaining in the supernatant ([3]; THC 5 μM): markedly decreased | receptor mediating the effect on microglial phagocytosis of Aβ ([3]; challenge experiments with receptor antagonists/agonists): cannabinoid CB2 receptors

CNC1(C)C2CCC(C2)C1(C)C (centres unmarked) [mecamylamine]
prevention of the ACh and nicotine inhibition of LPS-induced TNF-α release (microglial cells [4]): prevented

CN1CCCC1c1cccnc1 (centres unmarked) [nicotine]
microglial-released IL-1β (microglial cells [5]): effectively suppress | microglial-released IL-6 (microglial cells [5]): effectively suppress | microglial-released TNF-α (microglial cells [5]): effectively suppress | cell-associated FITC-Aβ1-42 [3]: increasing | extracellular FITC-Aβ1-42 remaining in the supernatant [3]: markedly decreased | microglial phagocytosis of Aβ1-42 peptide [3]: enhanced | receptor mediating the effect on microglial phagocytosis of Aβ [3]: α7 nicotinic receptors | LPS-induced TNF-α release (microglial cells [4]): inhibited | reduction in insoluble Aβ1-40 and Aβ1-42 peptides (Tg2576 transgenic mice): ~80%

α-bungarotoxin
prevention of the ACh and nicotine inhibition of LPS-induced TNF-α release (microglial cells [4]): prevented
